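How tested: cells in 96-well plates exposed to compound for 48 hours at five concentrations. TGI: total growth inhibition.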
What was measured:
Test in all cases: inhibition of tumour cell growth, NCI panel, 48 h
CCRF-CEM leukemia = system: CCRF-CEM leukemia
SK-MEL-28 melanoma = system: SK-MEL-28 melanoma
BT-549 breast = system: BT-549 breast
OVCAR-3 ovarian = system: OVCAR-3 ovarian
786-0 renal = system: 786-0 renal
HT29 colon = system: HT29 colon
HCT-116 colon = system: HCT-116 colon
NCI-H226 lung = system: NCI-H226 lung
NCI-H460 lung = system: NCI-H460 lung
MDA-MB-435 = system: MDA-MB-435
HCT-15 colon = system: HCT-15 colon
MALME-3M melanoma = system: MALME-3M melanoma
HS 578T breast = system: HS 578T breast
OVCAR-4 ovarian = system: OVCAR-4 ovarian
SK-MEL-2 melanoma = system: SK-MEL-2 melanoma
EKVX NSCLC = system: EKVX NSCLC
SNB-19 CNS = system: SNB-19 CNS
SW-620 colon = system: SW-620 colon
CAKI-1 renal = system: CAKI-1 renal
TK-10 renal = system: TK-10 renal
NCI-H23 lung = system: NCI-H23 lung
MDA-N = system: MDA-N
UO-31 renal = system: UO-31 renal
LOX IMVI melanoma = system: LOX IMVI melanoma
NCI-H522 lung = system: NCI-H522 lung
SR leukemia = system: SR leukemia
HOP-92 NSCLC = system: HOP-92 NSCLC
SK-OV-3 ovarian = system: SK-OV-3 ovarian
MOLT-4 leukemia = system: MOLT-4 leukemia
A549 NSCLC = system: A549 NSCLC
SN12C renal = system: SN12C renal
M14 melanoma = system: M14 melanoma
PC-3 prostate = system: PC-3 prostate
MCF7 breast = system: MCF7 breast
OVCAR-8 ovarian = system: OVCAR-8 ovarian
IGROV1 ovarian = system: IGROV1 ovarian
MDA-MB-231 breast = system: MDA-MB-231 breast
ACHN renal = system: ACHN renal
UACC-257 melanoma = system: UACC-257 melanoma
RXF 393 renal = system: RXF 393 renal
NCI/ADR-RES ovarian = system: NCI/ADR-RES ovarian
DU-145 prostate = system: DU-145 prostate
KM12 colon = system: KM12 colon
COLO 205 colon = system: COLO 205 colon
K-562 leukemia = system: K-562 leukemia
U251 CNS = system: U251 CNS
UACC-62 melanoma = system: UACC-62 melanoma
SF-268 CNS = system: SF-268 CNS
SF-539 CNS = system: SF-539 CNS
SNB-75 CNS = system: SNB-75 CNS
OVCAR-5 ovarian = system: OVCAR-5 ovarian
SF-295 CNS = system: SF-295 CNS
SK-MEL-5 melanoma = system: SK-MEL-5 melanoma
RPMI-8226 leukemia = system: RPMI-8226 leukemia
HCC-2998 colon = system: HCC-2998 colon
A498 renal = system: A498 renal
HL-60(TB) leukemia = system: HL-60(TB) leukemia
T-47D breast = system: T-47D breast
HOP-62 NSCLC = system: HOP-62 NSCLC

COC(=O)Cc1c(C(=O)CC(C)(C)n2cnc(CCN3C(=O)CCC3=O)c2)[nH]c2ccccc12
TGI (CCRF-CEM leukemia): > 100 µM | TGI (SK-MEL-28 melanoma): > 100 µM | TGI (BT-549 breast): > 100 µM | TGI (OVCAR-3 ovarian): > 100 µM | TGI (786-0 renal): > 100 µM | TGI (HT29 colon): > 100 µM | TGI (HCT-116 colon): > 100 µM | TGI (NCI-H226 lung): > 100 µM | TGI (NCI-H460 lung): > 100 µM | TGI (MDA-MB-435): > 100 µM | TGI (HCT-15 colon): > 100 µM | TGI (MALME-3M melanoma): > 100 µM | TGI (HS 578T breast): > 100 µM | TGI (OVCAR-4 ovarian): > 100 µM | TGI (SK-MEL-2 melanoma): > 100 µM | TGI (EKVX NSCLC): > 100 µM | TGI (SNB-19 CNS): > 100 µM | TGI (SW-620 colon): > 100 µM | TGI (CAKI-1 renal): > 100 µM | TGI (TK-10 renal): > 100 µM | TGI (NCI-H23 lung): > 100 µM | TGI (MDA-N): > 100 µM | TGI (UO-31 renal): > 100 µM | TGI (LOX IMVI melanoma): > 100 µM | TGI (NCI-H522 lung): > 100 µM | TGI (SR leukemia): > 100 µM | TGI (HOP-92 NSCLC): > 100 µM | TGI (SK-OV-3 ovarian): > 100 µM | TGI (MOLT-4 leukemia): > 100 µM | TGI (A549 NSCLC): > 100 µM | TGI (SN12C renal): > 100 µM | TGI (M14 melanoma): > 100 µM | TGI (PC-3 prostate): > 100 µM | TGI (MCF7 breast): > 100 µM | TGI (OVCAR-8 ovarian): > 100 µM | TGI (IGROV1 ovarian): > 100 µM | TGI (MDA-MB-231 breast): > 100 µM | TGI (ACHN renal): > 100 µM | TGI (UACC-257 melanoma): > 100 µM | TGI (RXF 393 renal): 96 µM | TGI (NCI/ADR-RES ovarian): > 100 µM | TGI (DU-145 prostate): > 100 µM | TGI (KM12 colon): > 100 µM | TGI (COLO 205 colon): > 100 µM | TGI (K-562 leukemia): > 100 µM | TGI (U251 CNS): > 100 µM | TGI (UACC-62 melanoma): > 100 µM | TGI (SF-268 CNS): > 100 µM | TGI (SF-539 CNS): > 100 µM | TGI (SNB-75 CNS): > 100 µM | TGI (OVCAR-5 ovarian): > 100 µM | TGI (SF-295 CNS): > 100 µM | TGI (SK-MEL-5 melanoma): > 100 µM

COc1cc(C2S/C(=C/c3ccccc3)C(=O)N2c2cccc(Cl)c2)cc(OC)c1OC (stereo not given)
TGI (CCRF-CEM leukemia): 73.4 µM | TGI (SK-MEL-28 melanoma): > 100 µM | TGI (BT-549 breast): 68.4 µM | TGI (OVCAR-3 ovarian): > 100 µM | TGI (786-0 renal): > 100 µM | TGI (HT29 colon): > 100 µM | TGI (HCT-116 colon): > 100 µM | TGI (RPMI-8226 leukemia): > 100 µM | TGI (NCI-H226 lung): > 100 µM | TGI (NCI-H460 lung): > 100 µM | TGI (MDA-MB-435): 57.8 µM | TGI (HCT-15 colon): > 100 µM | TGI (HS 578T breast): > 100 µM | TGI (OVCAR-4 ovarian): > 100 µM | TGI (SK-MEL-2 melanoma): > 100 µM | TGI (EKVX NSCLC): > 100 µM | TGI (SNB-19 CNS): > 100 µM | TGI (SW-620 colon): > 100 µM | TGI (CAKI-1 renal): > 100 µM | TGI (TK-10 renal): > 100 µM | TGI (NCI-H23 lung): > 100 µM | TGI (MDA-N): > 100 µM | TGI (UO-31 renal): > 100 µM | TGI (LOX IMVI melanoma): 55.1 µM | TGI (NCI-H522 lung): 41.7 µM | TGI (SR leukemia): 83.3 µM | TGI (HOP-92 NSCLC): > 100 µM | TGI (SK-OV-3 ovarian): > 100 µM | TGI (MOLT-4 leukemia): > 100 µM | TGI (A549 NSCLC): > 100 µM | TGI (SN12C renal): > 100 µM | TGI (M14 melanoma): > 100 µM | TGI (PC-3 prostate): > 100 µM | TGI (MCF7 breast): > 100 µM | TGI (OVCAR-8 ovarian): > 100 µM | TGI (IGROV1 ovarian): > 100 µM | TGI (MDA-MB-231 breast): > 100 µM | TGI (ACHN renal): > 100 µM | TGI (UACC-257 melanoma): 81.8 µM | TGI (NCI/ADR-RES ovarian): > 100 µM | TGI (HCC-2998 colon): > 100 µM | TGI (DU-145 prostate): 86.8 µM | TGI (KM12 colon): > 100 µM | TGI (COLO 205 colon): > 100 µM | TGI (K-562 leukemia): > 100 µM | TGI (U251 CNS): > 100 µM | TGI (A498 renal): > 100 µM | TGI (UACC-62 melanoma): > 100 µM | TGI (SF-268 CNS): > 100 µM | TGI (SF-539 CNS): > 100 µM | TGI (OVCAR-5 ovarian): > 100 µM | TGI (SF-295 CNS): > 100 µM | TGI (HL-60(TB) leukemia): > 100 µM | TGI (SK-MEL-5 melanoma): > 100 µM

CCOC(=O)c1c(SC(=O)C(C)(C)Oc2ccc(Cl)cc2)n(-c2ccccc2)c(=S)n(-c2ccccc2)c1=O
TGI (CCRF-CEM leukemia): 75.5 µM | TGI (SK-MEL-28 melanoma): > 100 µM | TGI (OVCAR-3 ovarian): > 100 µM | TGI (786-0 renal): > 100 µM | TGI (HT29 colon): 66.4 µM | TGI (HCT-116 colon): 49 µM | TGI (NCI-H226 lung): > 100 µM | TGI (NCI-H460 lung): 52.8 µM | TGI (MDA-MB-435): > 100 µM | TGI (HCT-15 colon): > 100 µM | TGI (MALME-3M melanoma): 72.7 µM | TGI (HS 578T breast): > 100 µM | TGI (OVCAR-4 ovarian): > 100 µM | TGI (T-47D breast): > 100 µM | TGI (EKVX NSCLC): > 100 µM | TGI (SNB-19 CNS): > 100 µM | TGI (SW-620 colon): 55.2 µM | TGI (CAKI-1 renal): > 100 µM | TGI (TK-10 renal): > 100 µM | TGI (NCI-H23 lung): > 100 µM | TGI (MDA-N): > 100 µM | TGI (LOX IMVI melanoma): > 100 µM | TGI (NCI-H522 lung): 84.3 µM | TGI (SR leukemia): 52.3 µM | TGI (HOP-92 NSCLC): > 100 µM | TGI (SK-OV-3 ovarian): > 100 µM | TGI (MOLT-4 leukemia): 58 µM | TGI (A549 NSCLC): 65.3 µM | TGI (SN12C renal): 67.8 µM | TGI (M14 melanoma): > 100 µM | TGI (MCF7 breast): 57.2 µM | TGI (OVCAR-8 ovarian): 42.1 µM | TGI (IGROV1 ovarian): 36 µM | TGI (MDA-MB-231 breast): 47.9 µM | TGI (ACHN renal): 44.4 µM | TGI (UACC-257 melanoma): > 100 µM | TGI (RXF 393 renal): 73.4 µM | TGI (NCI/ADR-RES ovarian): > 100 µM | TGI (HCC-2998 colon): > 100 µM | TGI (DU-145 prostate): > 100 µM | TGI (KM12 colon): 50 µM | TGI (COLO 205 colon): 39.3 µM | TGI (K-562 leukemia): > 100 µM | TGI (U251 CNS): 41 µM | TGI (HOP-62 NSCLC): 60.1 µM | TGI (A498 renal): 98.9 µM | TGI (UACC-62 melanoma): > 100 µM | TGI (SF-268 CNS): 43.9 µM | TGI (SF-539 CNS): 41.7 µM | TGI (SNB-75 CNS): > 100 µM | TGI (OVCAR-5 ovarian): > 100 µM | TGI (SF-295 CNS): > 100 µM | TGI (HL-60(TB) leukemia): > 100 µM

— PubChem BioAssay (NCI)
